“Also recorded” adds a separate entry of the source.
Columns and labels:
HIV-1 = details: literature; listed as ATA; cited from earlier work
[1] = tested on: gp120 expressed on the surface of HIV-1-infected cells; details: literature; cited from earlier work
peptide (492-518) = peptide (492-518) (Human immunodeficiency virus type 1 BH10, UniProt P03375); assay: Attachment of ATA determined by anti-ATA antibodies (double antibody RIA); assay type: binding, HIV-1 BH 10; details: FIG. 1C
Method: (§1) Antibodies to ATA were detected by double antibody RIA using wells coated with an ATA-ovalbumin conjugate. This conjugate was prepared in the same way as described for the ATA-BSA conjugate. Dilution endpoints of anti-ATA antibodies, determined as described by Ritchie, D. G., Nickerson, J. M., and Fuller, G. M. (1983), "Two Simple Programs for the Analysis of Data from Enzyme-linked Immunosorbent Assays (ELISA) on a Programmable Desk-top Calculator," Methods in Enzymology, 92, 577-588) of the two antisera were: 1:2,700 and 1:150,000, respectively. The second antiserum was used for subsequent RIA tests.
(§2) ATA was also added to a control peptide, (518-542), and to wells coated with gelatin only. After incubation for 4 hours at 20° C., excess ATA was removed, the wells were washed with TS and attached ATA was determined by double-antibody RIA using serial dilutions of the anti-ATA antiserum. Similar tests were carried out with serum from the same rabbit before immunization with the ATA-BSA conjugate; the corresponding results (100-450 cpm) were subtracted from cpm corresponding to RIA results obtained with the anti-ATA antiserum. For additional assays aimed at determining the binding of ATA to synthetic peptides from gp120 and gp41 of HIV-1 BH 10 and to V3 hypervariable loop peptides from 20 additional HIV-1 isolates, anti-ATA antiserum was used at a final dilution of 1:800.

gp120 = target: T1, gp120 (Human immunodeficiency virus type 1 BH10, UniProt P03375); assay: as above; assay type: binding, HIV-1 BH 10; details: FIG. 2; listed as ATA
T1 construct: cut from Env gp160
Method: as §1, §2

[2] = target: T2, V3 hypervariable loop peptide (303-338) (Human immunodeficiency virus type 1 BH10, UniProt P03375); assay: as above; assay type: binding, HIV-1 BH 10; details: FIG. 1C, FIG. 2
T2 construct: cut from Env gp160
Method: as §1, §2

CD4 receptor = details: literature; listed as ATA; cited from earlier work
[3] = target: T3, HIV-1 JY-1 V3 hypervariable loop peptide (Human immunodeficiency virus type 1 lw12.3 isolate, UniProt Q70626); assay: Reactivity/attachment of ATA with V3 hypervariable loop peptides of distinct HIV-1 isolates (FIG. 4); assay type: binding
T3 construct: cut from Env gp160
T3 sequence (Q70626 296-331): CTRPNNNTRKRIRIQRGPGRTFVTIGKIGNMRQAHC
Method: (§3) FIG. 4 comprises bar graphs depicting the interaction of aurintricarboxylic acid (ATA) with full length V3 hypervariable loop peptides from gp120 of distinct HIV-1 isolates (clones). FIG. 4A: Inhibitory effects of ATA (50 μg/ml) on the reaction between peptide-coated wells and homologous anti-peptide antisera (diluted 1:1,000). FIG. 4B: attachment of ATA to distinct V3 hypervariable loop peptide-coated wells as determined by double antibody RIA using rabbit antiserum against ATA.
(§4) To define sites on gp120/gp41 reacting with ATA, the inhibitory effect of this compound was studied by RIA tests using gp120- and gp160-coated wells, respectively, and antisera (final dilutions 1:150) against synthetic peptides from the entire sequence of gp120/gp41 of HIV-1 BH 10. The preparation and biological properties of these antisera were described elsewhere (Neurath et al., (1990), J. Gen. Virol., 71, 85-95). Each of the antisera was diluted in a mixture of fetal bovine serum and goat serum (9:1) containing 0.1% Tween 20, adjusted to pH 8. ATA (final concentration 50 μg/ml) was added in one set of assays, but was omitted from a parallel set. After incubation overnight at 25° C., the plates were washed with TS. Attached rabbit IgG was detected using ^125 I-labeled anti-rabbit IgG, as described before (Neurath et al., 1990, J. Gen. Virol., 71, 85-95). Similarly, the inhibitory effect of ATA on the reaction of peptides derived from gp120/gp41 and of peptides derived from V3 hypervariable loops from gp120 of distinct HIV-1 isolates with the respective homologous anti-peptide antisera was studied. In the latter case, antisera were diluted 1:1,000 for the assays.
(§5) ATA was also added to a control peptide, (518-542), and to wells coated with gelatin only. After incubation for 4 hours at 20° C., excess ATA was removed, the wells were washed with TS and attached ATA was determined by double-antibody RIA using serial dilutions of the anti-ATA antiserum. […]

[4] = target: T4, HIV-1 SC V3 hypervariable loop peptide (Human immunodeficiency virus type 1 (SC ISOLATE), UniProt P05878); assay: as above; assay type: binding
T4 construct: cut from Env gp160
T4 sequence (P05878 296-330): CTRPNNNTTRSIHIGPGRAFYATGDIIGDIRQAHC
Method: as §3, §4, §5

For `O=C(O)C1=CC(=C(c2ccc(O)c(C(=O)O)c2)c2ccc(O)c(C(=O)O)c2)C=CC1=O` [substance #122, aurintricarboxylic acid], the “inhibition of HIV-1 replication / antiviral activity” value (HIV-1) is listed as “inhibited the replication of HIV-1 in vitro; also recorded: inhibit the cytopathogenicity and replication of the human immunodeficiency virus type 1”, the “inhibition of the reaction of gp120 on infected cells with monoclonal anti-gp120 antibodies” value [1] is listed as “inhibit the reaction of gp120 expressed on the surface of HIV-1-infected cells with monoclonal anti-gp120 antibodies” and the “binding of ATA to peptide (anti-ATA antibodies)” value (peptide (492-518)) is listed as “bound to the peptide (492-518)”. The “binding of ATA to gp120 (anti-ATA antibodies)” value (gp120) was “reacted with gp120; also recorded: remained bound to gp120 after removal of the excess of the compound”, the “binding of ATA to peptide (anti-ATA antibodies)” value [2] was “most efficient binder of ATA” and the “inhibition of the interaction with CD4 receptor” value (CD4 receptor) was “inhibited the interaction of the CD4 receptor for HIV-1; also recorded: inhibiting the interaction between HIV-1 virions and cellular CD4 receptors”. The “reactivity of ATA with V3 hypervariable loop peptide” value [3] was “minimal”, the “reactivity of ATA with V3 hypervariable loop peptide” value ([4]; FIG. 4) was “minimal” and the “ATA binding to V3 peptide” value ([4]; FIG. 4B) was “bound very little ATA”.

— patent US5230998A, “Method for the prescreening of drugs targeted to the V3 hypervariable loop of the HIV-1 envelope glycoprotein gp 120” (priority 1991, dated 1993)
